Assay results as given in US5731293A, “Esculetin derivatives, method for manufacture thereof, and pharmaceutical composition” (Kureha Chemical Industry Co., Ltd., priority 1994, dated 1998).

How the values were obtained:
[1] = system: Crj: CD-1 (ICR) male mice; experiment: Acute toxicity, oral, male mice, 7-day observation; assay type: in vivo, mouse; conditions: 1000 and 2000 mg/kg, 7 days
Description: (§1) The toxicity of the esculetin derivatives of the present invention was examined. Typical examples of the present derivatives were administered orally at a dose of 2000 mg/kg (body weight) to male mice and male rats which were then observed for seven days. No deaths and no remarkable toxicity were observed. The esculetin derivatives of the present invention are extremely safe compounds (see Example 13).
(§2) The acute toxicity of the esculetin derivatives of the present invention was examined using Crj: CD-1 (ICR) male mice (6 weeks old) and Wistar male rats (6 weeks old). After 6-(β-2-acetamido-2-deoxy-D-glucopyranosyloxy)-7-(N,N-dimethylcarbamoyloxy)coumarin [Ib-2] […] In the experiments as above, two animals were used for each group.

Wistar male rats = experiment: Acute toxicity, oral, male rats, 7-day observation; assay type: in vivo, rat; conditions: 1000 and 2000 mg/kg, 7 days
Description: as §1, §2

[2] = system: interstitial collagenase (MMP-1); experiment: Inhibition of production of interstitial collagenase (MMP-1) in rabbit cartilage organ culture system, IL-1α stimulated; assay type: cell-based, rabbit (New Zealand White); conditions: IL-1α 100 units/ml, 48 hours; rabbit articular cartilage; values only in FIG. 1
Description: After the articular cartilages were collected from the shoulder and knee of rabbits (New Zealand White Rabbits, male, 6 weeks old) and divided into small pieces, cultivation experiment was started using Dulbecco's MEM medium containing 0.2% lactoalbumin. The compounds to be tested were dissolved in dimethylsulfoxide (DMSO) and then added to the medium. The concentration of DMSO was 0.25% by volume to the medium. After 2 hours from addition of the compounds to be tested, 100 units/ml of interleukin-1α (hereinafter referred to as the IL-1α) was added as a stimulant, and the cultivation was performed for 48 hours. Thereafter, the activity of MMP-1 in the supernatant of the culture was measured. Collageno kit (CLN-100) (Cosmo Bio Co., Ltd.) was used for the measurement of MMP-1.
The results are shown as the value of the mean value±standard error (n=4 per a group). As the esculetin derivative of the present invention, 6-(β-2-acetamido-2-deoxy-D-glucopyranosyloxy)-7-(N,N-dimethylcarbamoyloxy)coumarin [Ib-2] was used.
The abscissa is the percentage of the amounts of MMP-1 produced by adding both IL-1α and the compound to be tested as compared to the amounts of MMP-1 produced by the addition of IL-1α alone. When neither IL-1α nor the compound to be tested were added as a control test, MMP-1 was hardly produced.

[3] = Pharmacokinetic analysis in mouse femoral head cartilage (FHC) model; assay type: in vivo, BALB/C female mice implanted with FHC of S. D. male rats; conditions: oral, 534 mg/kg [Ib-2] vs esculetin 187 mg/kg; values only in FIG. 2
Description: The model mice were prepared in accordance with the method described in D. A. Willoughby et al., Agents Actions, vol. 38, pp. 126 to 134, 1993.
The left and right femoral head cartilages (FHC) were sterilely excised from S. D. male rats in a clean bench. The excised FHC's were washed with a Ham F-12 culture medium containing antibiotics and the wet weight was measured. Then, the FHC's were wrapped in two cotton sheets (about 1 cm×1 cm) and cooled with ice in the culture medium for storage until implantation. The FHC's were implanted sterilely under the dorsal skin of BALB/C female mice whose dorsal regions were shaved. The incisions were stitched, and then completely sealed with surgical adhesive (Toa Gosei, Japan).
The above mouse FHC model were used to pharmacokinetically compare esculetin and the esculetin derivative [Ib-2] of the present invention. Esculetin (187 mg/kg) and an equimolar amount, i.e., 534 mg/kg, of the esculetin derivative [Ib-2] of the present invention were administered orally three days after the implantation of the FHC. The FHC's were periodically removed and digested with papain. Then, an amount of the compounds taken up in the FHC was analyzed by high performance liquid chromatography. In the above experiments, three mice were used for each group.

SMILES: CC(=O)N[C@H]1[C@H](Oc2cc3ccc(=O)oc3cc2OC(=O)N(C)C)O[C@H](CO)[C@@H](O)[C@@H]1O [Ib-2, 6-(β-2-acetamido-2-deoxy-D-glucopyranosyloxy)-7-(N,N-dimethylcarbamoyloxy)coumarin]
- deaths [1]: No deaths were observed
- general state and body weight in comparison with the control group [1]: no change was observed
- deaths (Wistar male rats): No deaths were observed
- general state and body weight in comparison with the control group (Wistar male rats): no change was observed
- amounts of MMP-1 released under IL-1α stimulated condition [2]: reduced the amounts of MMP-1 under IL-1α stimulated condition
- amount of compound taken up and retained in the FHC [3]: taken up and retained in the FHC for a long time in a higher concentration as compared to esculetin
